Experimental data from patent US6727244B2, “Mammalian metabolites of a tachykinin receptor antagonist” (Merck & Co., Inc., priority 2000, dated 2004).

Columns and labels:
Assay type in all cases: in vitro ADME
[1] = oxidative metabolism in liver microsomes from rats; details: rat liver microsomes, 15 min incubation
Method: All liver microsomal and cytosolic fractions were prepared using the following procedure. Thawed livers were homogenized with 2 volumes of 50 mM Tris-buffer (pH 7.5) containing 1.15% KCl. For microsomal and cytosolic preparations, the homogenate was centrifuged for 20 min at 9,000×g and the resulting supernatant was centrifuged for 60 min at 105,000×g. The resulting cytosolic fractions were re-centrifuged at 105,000×g for 60 min. Fractions of cytosol were aliquoted into small tubes and stored at −70° C. Subsequently, the microsomal pellets were washed with 10 mM EDTA containing 1.15% KCl and were centrifuged at 105,000×g for 60 min. Washed microsomes were resuspended in 10 mM potassium phosphate buffer (pH 7.4) containing 250 mM sucrose, aliquoted into small tubes, and stored at −70° C. Protein concentrations were determined by a modified Lowry assay (Smith et al., 1985). The specific cytochrome P450 content in each microsomal preparation was measured as described by Omura and Sato, J. Biol. Chem. 239, 2370-2378 (1964). […]
Method A was conducted on a Shimadzu HPLC system (Shimadzu Scientific Instruments Inc., Columbia Md.). The parent compounds and their metabolites were monitored directly using a radiometric detector (INUS Systems Inc. Tampa, Fla.) and Ultima-Flow M (Packard Instrument Co., Meridan Conn.) as scintillant at a flow rate of 3 mL/min. […]

[2] = glucuronidation in liver microsomes from rats; details: rat liver microsomes, UDPGA, 37° C. for 60 min
Method: (§1) All liver microsomal and cytosolic fractions were prepared using the following procedure. Thawed livers were homogenized with 2 volumes of 50 mM Tris-buffer (pH 7.5) containing 1.15% KCl. For microsomal and cytosolic preparations, the homogenate was centrifuged for 20 min at 9,000×g and the resulting supernatant was centrifuged for 60 min at 105,000×g. The resulting cytosolic fractions were re-centrifuged at 105,000×g for 60 min. Fractions of cytosol were aliquoted into small tubes and stored at −70° C. Subsequently, the microsomal pellets were washed with 10 mM EDTA containing 1.15% KCl and were centrifuged at 105,000×g for 60 min. […] Protein concentrations were determined by a modified Lowry assay (Smith et al., 1985). The specific cytochrome P450 content in each microsomal preparation was measured as described by Omura and Sato, J. Biol. Chem. 239, 2370-2378 (1964).
(§2) The typical reaction mixture (500 μl) containing 10 mM MgCl2, 2% glycerol, 0.02% lubrol PX, 3 mM UDPGA, 1 mg liver microsomes, 50 mM bis-tris propane buffer (pH 8.5) and ˜10 or 25 μM compound (in 15 μl methanol) was incubated at 37° C. for 30-60 min. After incubation, the reactions were terminated by the addition of four volumes of acetonitrile and processed and analyzed by HPLC as mentioned above.

[3] = glucuronidation in liver microsomes from humans; details: human liver microsomes, UDPGA, 37° C. for 60 min
Method: as §1, §2

[4] = target: T1, recombinant human CYP isozymes (Homo sapiens, UniProt P08684); assay: metabolism by microsomes containing recombinant human CYP isozymes; details: parent to M-1 (N-dealkylation); M-1 to M-2 (oxidation); M-3 to M-4 (hydroxylation); M-2 to M-5 (conversion)
T1 construct: host or cells: Baculovirus-infected sf21 insect cells (microsomes)
Method: Hepatocytes were harvested from male Sprague-Dawley rat livers or human livers and cultured on a matrigel support and treated with 0.1 μM dexamethasone or 50 μM rifampicin, respectively, for 48 hr prior to the addition of the test compounds. A 2.5 mM stock solution of [^14C]2-(R)-(1-(R)-(3,5-bis(trifluoromethyl)-phenyl)ethoxy)-3-(S)-(4-fluoro)phenyl-4-(3-(5-oxo-1H,4H-1,2,4-triazolo)methylmorpholine, [^14C]M-1 or [^14C]M-2 in DMSO was added to the plates such that the final concentration of test compound was 25 μM and DMSO was 1% (v/v). The cultures were incubated for 4, 6 or 24 hr for rat hepatocytes and 48 hr for human hepatocytes. The incubation mixtures (500 μL) contained 10 μM of test compound, 100 mM phosphate buffer pH 7.4, NADPH-regenerating system, microsomes containing expressed CYP isoforms (CYP1A2, CYP2A6, CYP2B6, CYP2C8, CYP2C9, CYP2C19, CYP2D6, CYP2E1 or CYP3A4) and cytochrome P-450 reductase. The reactions were initiated by adding NADP and proceeded at 37° C. for 15-45 min. Acetonitrile extracts from microsomal and hepatocyte incubates were dissolved in 50% aqueous methanol and fractionated by HPLC. The separation was accomplished on a Zorbax RX C8 analytical column (5 μm, 4.6×250 mm). The mobile phase consisted of solvent A (10 mM ammonium acetate in water) and solvent B (7.3 mM ammonium acetate in 92.7% acetonitrile and 7.3% methanol. The column was eluted by a linear gradient from 35 to 80% B over 40 min at a flow rate of 1 mL/min. Fractions of major metabolites were subjected to LC-MS/MS analysis. Further purification was done using isocratic conditions prior to NMR analysis.
The incubation mixtures (500 μL) contained 10 or 25 μM of test compounds, 100 mM phosphate buffer pH 7.4, NADPH-regenerating system (5 mM glucose-6-phosphate, 1 mM NADP and 0.7 I.U/mL glucose 6-phosphate dehydrogenase), 0.5 to 2 mg/mL liver microsomal protein prepared from rats and humans or microsomes from Baculovirus-infected sf21 cells containing 20 to 200 pmol expressed CYP isoforms (CYP1A2, CYP2A6, CYP2B6, CYP2C8, CYP2C9, CYP2C19, CYP2D6, CYP2E1 or CYP3A4) and cytochrome P450 reductase. Stock solutions of the substrates in methanol were made such that final concentration of methanol in the reaction mixture was 3%. The reactions were initiated by adding 50 μL of 10 mM NADP and proceeded at 37° C. for 15-45 min. After incubation, the reactions were terminated by the addition of four volumes of acetonitrile. The suspensions were mixed vigorously and centrifuged at 3000×g for 5 min. The supernatants were dried and redissolved in 50% methanol for HPLC analysis using method A described below.

T1 sequence (P08684 2-503 limits assumed): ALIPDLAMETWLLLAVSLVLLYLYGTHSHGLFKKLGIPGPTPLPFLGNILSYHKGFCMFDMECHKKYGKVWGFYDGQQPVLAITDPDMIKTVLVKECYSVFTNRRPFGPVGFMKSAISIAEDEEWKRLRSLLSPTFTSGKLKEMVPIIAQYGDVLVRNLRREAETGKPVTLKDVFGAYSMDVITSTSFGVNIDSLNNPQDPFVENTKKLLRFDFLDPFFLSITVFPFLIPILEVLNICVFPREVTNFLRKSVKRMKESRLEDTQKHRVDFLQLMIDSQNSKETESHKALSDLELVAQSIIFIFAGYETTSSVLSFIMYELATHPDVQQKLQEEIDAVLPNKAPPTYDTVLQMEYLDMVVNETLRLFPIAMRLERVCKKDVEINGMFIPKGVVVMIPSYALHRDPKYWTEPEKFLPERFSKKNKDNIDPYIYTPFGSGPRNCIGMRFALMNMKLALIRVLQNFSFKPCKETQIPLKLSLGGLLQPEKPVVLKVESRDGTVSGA

C[C@@H](O[C@H]1OCCN[C@H]1c1ccc(F)cc1)c1cc(C(F)(F)F)cc(C(F)(F)F)c1 [Metabolite M-1, (2R,3S)-2-[(1R)-1-[3,5-bis(trifluoromethyl)phenyl]ethoxy]-3-(4-fluorophenyl)morpholine]
parent compound remained after incubation [1]: ~50%
conversion to the corresponding glucuronide [2]: ~20%
conversion to the corresponding glucuronide [3]: ~20%
CYP isozyme primarily responsible for the metabolic step [4]: CYP3A4
